Measured values published in US20090005435A1, “Novel Compounds, Pharmaceutical Compositions Containing Same, and Methods of Use for Same” (priority 2004, published 2009).
In brackets after ≈: the same amount, converted by molar mass. Several values for one entry are separate records, joined by “and”; a condition that tells them apart may be missing. Identical values can stand only once.

Experiments:
[1] = system: MCF-7 human breast cancer cells; assay: XTT cytotoxicity assay (M); format: cell-based; conditions: MCF7
Protocol: (§1) The XTT assay is a non-radioactive alternative for the [^51Cr] release cytotoxicity assay. XTT is a tetrazolium salt that is reduced to a formazan dye only by metabolically active, viable cells. The reduction of XTT is measured spectrophotometrically as OD490-OD650.
To measure the cytotoxicity of specific compounds against cancer cells, 9×10^3 MCF-7 human breast cancer cells, obtained from the American Type Culture Collection are plated per well in 96 well plates in DMEM medium with 10% fetal bovine serum, insulin, penicillin, and streptomycin. Following overnight culture at 37° C. and 5% CO2, the compounds to be tested, dissolved in DMSO, are added to the wells in 1 μl volume at the following concentrations: 80, 40, 20, 10, 5, 2.5, 1.25, and 0.625 μg/ml in triplicate. Additional concentrations are tested if required. 1 μl of DMSO is added to triplicate wells are the vehicle control. C75 is run at 40, 20, […], and 5 μg/ml in triplicate as positive controls.
(§2) After 72 hours of incubation, cells are incubated for 4 hours with the XTT reagent as per manufacturer's instructions (Cell Proliferation Kit II (XTT) Roche). Plates are read at OD490 and OD650 on a Molecular Devices SpectraMax Plus Spectrophotometer. Three wells containing the XTT reagent without cells serve as the plate blank. XTT data are reported as OD490-OD650. Averages and standard error of the mean are computed using SOFTmax Pro software ([…]).
(§3) The IC50 for the compounds is defined as the concentration of drug leading to a 50% reduction in OD490-OD650 compared to controls. The OD490-OD650 are computed by the SOFTmax PRO software (Molecular Devices) for each compound concentration. IC50 is calculated by linear regression, plotting the FAS activity as percent of control versus drug concentrations. Linear regression, best-fit line, r^2, and 95% confidence intervals are determined using Prism Version 3.0 (Graph Pad Software).

purified human FAS = biological target: T1, purified human FAS (Homo sapiens, UniProt P49327); assay: FAS enzymatic activity (malonyl-CoA dependent NADPH oxidation); format: biochemical; conditions: (SB)
T1 construct: Human FAS was purified from cultured ZR-75-1 human breast cancer cells; endogenous in cells; host or cells: ZR-75-1 human breast cancer cells (ATCC); enzyme purified by PEG precipitation and Mono Q chromatography
Protocol: Purification of FAS from ZR-75-1 Human Breast Cancer Cells.
Human FAS was purified from cultured ZR-75-1 human breast cancer cells obtained from the American Type Culture Collection. The procedure, adapted from Linn et al., 1981, and Kuhajda et al., 1994, utilizes hypotonic lysis, successive polyethyleneglycol (PEG) precipitations, and anion exchange chromatography. ZR-75-1 cells are cultured at 37° C. with 5% CO2 in RPMI culture medium with 10% fetal bovine serum, penicillin and streptomycin.
Ten T150 flasks of confluent cells are lysed with 1.5 ml lysis buffer (20 mM Tris-HCl, pH 7.5, 1 mM EDTA, 0.1 mM phenylmethanesulfonyl fluoride (PMSF), 0.1% Igepal CA-630) and dounce homogenized on ice for 20 strokes. The lysate is centrifuged in JA-20 rotor (Beckman) at 20,000 rpm for 30 minutes at 4° C. and the supernatant is brought to 42 ml with lysis buffer. A solution of 50% PEG 8000 in lysis buffer is added slowly to the supernatant to a final concentration of 7.5%. After rocking for 60 minutes at 4° C., the solution is centrifuged in JA-20 rotor (Beckman) at 15,000 rpm for 30 minutes at 4° C. Solid PEG 8000 is then added to the supernatant to a final concentration of 15%. After the rocking and centrifugation is repeated as above, the pellet is resuspended overnight at 4° C. in 10 ml of Buffer A (20 mM K2HPO4, pH 7.4). After […] filtration, the protein solution is applied to a Mono Q 5/5 anion exchange column (Pharmacia). The column is washed for 15 minutes with buffer A at 1 ml/minute, and bound material is eluted with a linear 60-ml gradient over 60 minutes to 1 M KCl. FAS (MW˜270 kD) typically elutes at 0.25 M KCl in three 0.5 ml fractions identified using 4-15% SDS-PAGE with Coomassie G250 stain (Bio-Rad). FAS protein concentration is determined using the Coomassie Plus Protein Assay Reagent (Pierce) according to manufacturer's specifications using BSA as a standard. This procedure results in substantially pure preparations of FAS (>95%) as judged by Coomassie-stained gels.
Measurement of FAS Enzymatic Activity and Determination of the IC50 of the Compounds
FAS activity is measured by monitoring the malonyl-CoA dependent oxidation of NADPH spectrophotometrically at OD340 in 96-well plates (Dils et al and Arslanian et al, 1975). Each well contains 2 μg purified FAS, 100 mM K2HPO4, pH 6.5, 1 mM dithiothreitol (Sigma), and 187.5 μM β-NADPH (Sigma). Stock solutions of inhibitors are prepared in DMSO at 2, 1, and 0.5 mg/ml resulting in final concentrations of 20, 10, and 5 μg/ml when 1 μl of stock is added per well. For each experiment, cerulenin (Sigma) is run as a positive control along with DMSO controls, inhibitors, and blanks (no FAS enzyme) all in duplicate.
The assay is performed on a Molecular Devices SpectraMax Plus Spectrophotometer. The plate containing FAS, buffers, inhibitors, and controls are placed in the spectrophotometer heated to 37° C. Using the kinetic protocol, the wells are blanked on duplicate wells containing 100 μl of 100 mM K2HPO4, pH 6.5 and the plate is read at OD340 at 10 sec intervals for 5 minutes to measure any malonyl-CoA independent oxidation of NADPH. The plate is removed from the spectrophotometer and malonyl-CoA (67.4 μM, final concentration per well) and […] (61.8 μM, final concentration per well) are added to each well except to the blanks. The plate is read again as above with the kinetic protocol to measure the malonyl-CoA dependent NADPH oxidation. The difference between the Δ OD340 for the malonyl-CoA dependent and non-malonyl-CoA dependent NADPH oxidation is the specific FAS activity. Because of the purity of the FAS preparation, non-malonyl-CoA dependent NADPH oxidation is negligible.
The IC50 for the compounds against FAS is determined by plotting the Δ OD340 for each inhibitor concentration tested, performing linear regression and computing the best-fit line, r^2 values, and 95% confidence intervals. The concentration of compound yielding 50% inhibition of FAS is the IC50. […]

(O) = assay: XTT cytotoxicity assay (O); format: cell-based; conditions: read-out: XTT (IC50) (O)
Protocol: as §1, §2, §3

fatty acid oxidation = assay: β-Oxidation assay, isolation of acid soluble products; format: cell-based; design: Beta Oxidation: unit not given here; conditions: for FAO MAx: maximal fatty acid oxidation, at the concentration given under E32
Protocol: β-Oxidation Assay—Isolation of Acid Soluble Products A 24 well plate with 1 ml per well was prepared with 2.5×10^5 cells/well. The cells were incubated O/N. The next day, a solubilized palmitate solution was prepared. 50 μls of (1-^14C) Palmitic acid was added to a 2 ml centrifuge tube and dried under nitrogen gas. 2 mls of α-CD (α-Cyclodextran)-10 mg/ml in 10 mM Tris were added. This solution was incubated in a 37° C. water bath for 30 minutes. A hot mix was prepared by adding 25 μls of this solution to 2.5 μls of 200 μM Carnitine and 222.5 μls of serum free medium that is used for cells. The cells were then treated with the test compound in triplicate, and incubated at 37° C. for 60 minutes. The medium was removed and 250 μls of the hot mix were added. The test compound was added again, and further incubated at 37° C. for 60 minutes. The reaction was stopped with 50 μls of 2.6 N HClO4. The contents of the plate were transferred to a 1.5 ml centrifuge tube, and 50 μls of 4N KOH were then added, and the tube incubated in a 60° C. water bath for 30 min. Sodium acetate (1M, 75 μls) and sulfuric acid (3N, 50 μls) were added to the solution and vortexed. The tube was spun for 7 minutes at 1000 rpm at room temperature. A portion (225 μls) was removed, and the following were added (vortex after each addition, twice at the end): 938 μls of 1:1 Chloroform:Methanol; 468 μls of Chloroform; 281 μls distilled Water. The tubes were spun at 1000 rpm for 5 minutes. The upper phase was removed into a large glass scintillation vial and 5 mls of Budget solvent (scintillation liquid) was added. The tubes were well vortexed. Finally, C14 was counted for one minute.

[2] = system: Mycobacterium tuberculosis; conditions: in vitro; cited from earlier work
viral HIV protease = viral HIV protease (Human immunodeficiency virus type 1 group M subtype B, UniProt P04585); conditions: cited from earlier work
[3] = biological target: rat liver acyl-CoA synthetase; conditions: read-out: 50% inhibition of rat liver acyl-CoA synthetase; cited from earlier work
Raji cells = conditions: cited from earlier work

T1 sequence (P49327 whole entry): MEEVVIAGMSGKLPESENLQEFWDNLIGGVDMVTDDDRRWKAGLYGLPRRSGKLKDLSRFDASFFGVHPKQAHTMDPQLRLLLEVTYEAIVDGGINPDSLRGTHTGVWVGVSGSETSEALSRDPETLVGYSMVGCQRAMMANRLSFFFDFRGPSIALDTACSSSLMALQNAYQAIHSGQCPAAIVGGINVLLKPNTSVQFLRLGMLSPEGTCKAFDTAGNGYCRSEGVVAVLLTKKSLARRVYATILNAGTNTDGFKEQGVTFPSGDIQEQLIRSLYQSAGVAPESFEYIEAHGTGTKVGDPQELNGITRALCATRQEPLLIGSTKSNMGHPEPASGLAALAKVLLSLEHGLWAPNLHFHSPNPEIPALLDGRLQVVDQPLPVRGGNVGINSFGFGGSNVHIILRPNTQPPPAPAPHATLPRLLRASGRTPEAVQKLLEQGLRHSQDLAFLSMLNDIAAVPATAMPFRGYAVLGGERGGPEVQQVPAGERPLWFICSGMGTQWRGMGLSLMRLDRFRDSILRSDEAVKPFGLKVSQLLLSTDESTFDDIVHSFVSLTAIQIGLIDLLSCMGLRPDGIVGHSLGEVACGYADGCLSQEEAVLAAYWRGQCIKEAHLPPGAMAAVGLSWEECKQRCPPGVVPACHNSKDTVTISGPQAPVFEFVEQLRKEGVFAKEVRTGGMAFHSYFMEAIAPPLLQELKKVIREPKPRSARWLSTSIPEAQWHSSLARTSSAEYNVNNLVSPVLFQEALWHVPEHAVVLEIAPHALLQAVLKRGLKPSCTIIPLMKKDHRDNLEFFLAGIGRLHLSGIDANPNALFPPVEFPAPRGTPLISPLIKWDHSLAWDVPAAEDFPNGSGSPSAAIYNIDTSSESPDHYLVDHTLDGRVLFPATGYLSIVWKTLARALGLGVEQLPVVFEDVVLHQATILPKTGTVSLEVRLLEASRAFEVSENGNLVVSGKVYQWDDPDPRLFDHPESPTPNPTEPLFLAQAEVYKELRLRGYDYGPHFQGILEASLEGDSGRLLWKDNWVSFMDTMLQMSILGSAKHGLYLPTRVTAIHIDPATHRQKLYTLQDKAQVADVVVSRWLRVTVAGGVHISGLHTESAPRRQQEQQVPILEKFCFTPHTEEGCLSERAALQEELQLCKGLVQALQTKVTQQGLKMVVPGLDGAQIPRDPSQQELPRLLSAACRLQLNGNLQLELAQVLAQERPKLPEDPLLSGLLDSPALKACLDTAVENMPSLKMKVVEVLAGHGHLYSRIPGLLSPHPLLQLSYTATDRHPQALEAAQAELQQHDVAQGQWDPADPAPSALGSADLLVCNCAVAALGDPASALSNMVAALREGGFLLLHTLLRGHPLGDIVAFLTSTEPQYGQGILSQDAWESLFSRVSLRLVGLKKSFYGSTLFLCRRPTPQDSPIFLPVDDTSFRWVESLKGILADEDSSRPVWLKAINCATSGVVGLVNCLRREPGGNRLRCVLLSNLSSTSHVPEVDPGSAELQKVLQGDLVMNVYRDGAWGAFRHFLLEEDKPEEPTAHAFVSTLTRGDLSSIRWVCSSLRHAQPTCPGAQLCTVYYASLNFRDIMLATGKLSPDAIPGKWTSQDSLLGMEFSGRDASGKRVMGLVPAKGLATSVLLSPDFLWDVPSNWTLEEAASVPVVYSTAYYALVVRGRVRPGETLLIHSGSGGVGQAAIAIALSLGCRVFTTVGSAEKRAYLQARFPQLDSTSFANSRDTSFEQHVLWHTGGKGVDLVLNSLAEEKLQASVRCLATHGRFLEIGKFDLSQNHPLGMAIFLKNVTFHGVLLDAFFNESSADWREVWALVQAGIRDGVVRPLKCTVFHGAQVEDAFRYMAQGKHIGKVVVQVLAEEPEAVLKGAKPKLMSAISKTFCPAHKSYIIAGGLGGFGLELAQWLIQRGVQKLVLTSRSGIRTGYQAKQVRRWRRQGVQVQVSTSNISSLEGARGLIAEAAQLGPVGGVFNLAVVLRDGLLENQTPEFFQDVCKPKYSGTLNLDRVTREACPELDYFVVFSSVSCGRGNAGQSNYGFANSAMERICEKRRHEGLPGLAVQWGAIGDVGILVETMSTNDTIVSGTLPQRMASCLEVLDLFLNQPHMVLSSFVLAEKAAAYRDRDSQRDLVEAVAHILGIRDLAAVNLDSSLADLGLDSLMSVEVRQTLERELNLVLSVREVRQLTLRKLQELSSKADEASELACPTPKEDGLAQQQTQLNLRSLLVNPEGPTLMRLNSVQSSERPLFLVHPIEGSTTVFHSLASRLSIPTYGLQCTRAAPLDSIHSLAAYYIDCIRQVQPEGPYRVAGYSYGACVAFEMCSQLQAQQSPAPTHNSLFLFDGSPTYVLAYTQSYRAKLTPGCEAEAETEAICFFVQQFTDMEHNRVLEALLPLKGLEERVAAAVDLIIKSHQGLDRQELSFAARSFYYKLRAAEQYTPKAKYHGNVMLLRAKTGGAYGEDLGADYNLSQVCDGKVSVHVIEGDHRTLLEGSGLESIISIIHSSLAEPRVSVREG

| Structure (SMILES) | IC50 [1] [µg/mL] | FAS (IC50) (SB) (purified human FAS) | IC50 ((O)) [µg/mL] | FAO MAx, concentration at maximum (fatty acid oxidation) [µg/mL] | FAO SC 150 (fatty acid oxidation) | Beta Oxidation (fatty acid oxidation; 0.097 ug/ml) | Beta Oxidation (fatty acid oxidation; 0.39 ug/ml) | Beta Oxidation (fatty acid oxidation; 1.56 ug/ml) | Beta Oxidation (fatty acid oxidation; 6.25 ug/ml) | Beta Oxidation (fatty acid oxidation; 25 ug/ml) | Beta Oxidation (fatty acid oxidation; 100 ug/ml) | FAO MAx (fatty acid oxidation) | activity against Mycobacterium tuberculosis [2] | inhibition of viral HIV protease at (viral HIV protease) [mg/mL] | IC50 [3] [µM] | growth inhibition in Raji cells at (Raji cells) [µM] |
| --- | --- | --- | --- | --- | --- | --- | --- | --- | --- | --- | --- | --- | --- | --- | --- | --- |
| CCCCCCCCC1(C)SC(=O)C(C)(C)C1=O (stereo not shown) [Compound 6, 3,3,5-Trimethyl-5-octyl-thiophene-2,4-dione] | 23 (≈ 85 µM) | Neg (SB) | > 80 | 6.25 | Neg | 100 and 86 | 110 and 93 | 110 and 102 | 121 and 141 and 130 | 57 and 52 and 53 | 19 and 29 | 141% at |  |  |  |  |
| C/C=C/C/C=C/CCC(=O)[C@H]1O[C@H]1C(N)=O [cerulenin, (2S,3R)-2,3-epoxy-4-oxo-7,10 dodecadienoyl amide] |  |  |  |  |  |  |  |  |  |  |  |  | no activity was found | 5 |  |  |
| CCCCCCC1(C)SC(=O)C(C)(C)C1=O (stereo not shown) [Compound 9, 3,3,5-Trimethyl-5-hexyl-thiophene-2,4-dione] | 5.3 (≈ 21.9 µM) | Neg (SB) | 14 (≈ 57.8 µM) | 6.25 | Neg | 96 | 99 | 97 | 115 | 58 | 27 | 115% |  |  |  |  |
| CCCC=CCC=CC=CC=NN=NO [Triacsin C, 1-hydroxy-3-(E,E,E-2′,4′,7′-undecatrienylidine) triazene] |  |  |  |  |  |  |  |  |  |  |  |  |  |  | 8.7 | 1.0 |
